Test results published in patent publication US20110065735A1, “SUBSTITUTED QUINAZOLINES” (Shire LLC, priority 2008, published 2011).
Read-outs that look alike come from different tables or passages of the source.

Experiments:
megakaryocytopoiesis [1] = test: inhibition of TPO-induced megakaryocytopoiesis (differentiation of human CD34+ stem cells into megakaryocytes); format: cell-based; conditions: read-out: anti-megakaryocytic IC50
Excerpt: Such activity may be assessed using a well established model. Assessment of the in vitro anti-megakaryocytic activity—and potentially therefore the platelet lowering capability—of the anagrelide prodrugs can be determined using the model of megakaryocytopoiesis (Cohen-Solal et al., Thromb. Haemost. 1997, 78:37-41 and Cramer et al., Blood, 1997, 89:2336-46). This involves examining the differentiation of human CD34^+ stem cells into megakaryocytes which ultimately give rise to blood platelets.

[2] = tested on: human phosphodiesterase III (PDE III); test: PDE III inhibition; format: biochemical
[3] = human pharmacokinetics of anagrelide and its metabolite
megakaryocytopoiesis [4] = conditions: cited from earlier work
[5] = in vivo; cited from earlier work
aqueous solubility = format: physicochemical
in vivo = conditions: dog
Experimental: The potential benefit of improved water solubility on the absorption of these open-ring analogues was shown in a comparative bioavailability study in the dog. Using the unsubstituted ethyl-5,6-dichloro-3,4-dihydro-2-(1H)-iminoquinazoline-3-acetate HBr as a model compound, a comparison was made of the systemic availability of anagrelide when given as this compound or as anagrelide itself in equimolar doses (7.7 & 6.1 mg/kg respectively).
The lesser variability was consistent with more efficient absorption. This study illustrated the potential benefits of the open-ring prodrugs to improve absorption.

[6] = target: human phosphodiesterase III (PDE III); conditions: cited from earlier work
[7] = tested on: erythroid or myelomonocytic differentiation; conditions: stimulated by erythropoietin or granulocyte-macrophage colony-stimulating factor; cited from earlier work
[8] = conversion of prodrug to anagrelide in human plasma (LC/MS-MS); format: in vitro ADME; conditions: spiked 100 ng/mL, room temperature, first point of measurement (immediately after mixing)
Experimental: Such prodrugs are likely to be extremely rapidly and completely cyclised in plasma to the closed ring 3-alkylanagrelide analogues. […] Human plasma was spiked with anagrelide prodrug (final concentration 100 ng/mL). Immediately after mixing, and at 15, 30, 45 and 60 minutes afterward samples were analysed for anagrelide prodrug and anagrelide.

Compound: CC1(C)C(=O)NC2=Nc3ccc(Cl)c(Cl)c3CN21 [3,3-dimethyl anagrelide]
- IC50 (megakaryocytopoiesis [1]): ~160 nM

Compound: O=C1NC2=Nc3ccc(Cl)c(Cl)c3CN2C1O (stereo not drawn) [3-hydroxyanagrelide]
- potency as PDE III inhibitor relative to anagrelide [2]: over 40 fold
- in vivo exposure relative to parent drug [3]: 2-3 fold
- potency in inhibition of megakaryocytopoiesis relative to parent drug (megakaryocytopoiesis [4]): no more potent than the parent drug
- typical half-life [5]: 2.5 h

Compound: O=C1CN2Cc3c(ccc(Cl)c3Cl)N=C2N1 [Anagrelide, 6,7-dichloro-1,5-dihydroimidazo[2,1-b]-quinazolin-2(3H)-one]
- IC50 (megakaryocytopoiesis [1]; Homo sapiens): 27 nM
- solubility (aqueous solubility; aqueous, pH 7, aqueous buffer, read-out: aqueous solubility): < 10 µg/mL
- metabolite-to-drug exposure ratio (in vivo; male): 1.5
- AUC (in vivo; male, AUC for anagrelide, range): 21.6 to 188 ng·h/mL
- Cmax (in vivo; male, Cmax for anagrelide, range): 9.5 to 44.3 ng/mL
- IC50 (megakaryocytopoiesis [4]; estimated, background statement, read-out: IC50 inhibition of TPO-induced megakaryocytopoiesis): ~26 nM
- IC50 [6]: ~29 nM
- effect on erythroid or myelomonocytic differentiation [7]: does not affect
- first pass effect [5]: > 50%
- typical half-life [5]: 1.5 h

Compound: Br.CCOC(=O)CN1Cc2c(ccc(Cl)c2Cl)NC1=N [ethyl-5,6-dichloro-3,4-dihydro-2-(1H)-iminoquinazoline-3-acetate HBr]
- solubility (aqueous solubility; distilled water): ~5500 µg/mL
- prodrug remaining in human plasma [8]: no prodrug could be found
- metabolite-to-drug exposure ratio (in vivo): 0.9
- fold higher Cmax for anagrelide than after anagrelide itself (in vivo; 6.1 mg/kg): approximately 17 fold
- mean fold higher AUC for anagrelide than after anagrelide itself (in vivo; 6.1 mg/kg): 16 fold

Compound: Cc1[nH]c(=O)c(C#N)cc1-c1ccncc1 [milrinone]
- IC50 [6]: 170 to 350 nM
